Laboratory results as given in ChEMBL document CHEMBL3112480, “γ-Alkylidene-γ-lactones and isobutylpyrrol-2(5H)-ones analogues to rubrolides as inhibitors of biofilm formation by gram-positive and gram-negative bacteria” (Bioorg Med Chem Lett, 2014).
In brackets after ≈: the same amount, converted by molar mass.

How the values were obtained:
Streptococcus mutans [1] = assay: Antibacterial activity against Streptococcus mutans ATCC 25175 assessed as effect on planktonic growth at 21.9 ug/ml after 20 hrs relative to control; type: functional
Streptococcus mutans [2] = assay: Antibacterial activity against Streptococcus mutans ATCC 25175 assessed as effect on planktonic growth at 43.8 ug/ml after 20 hrs relative to control; type: functional
Streptococcus mutans [3] = assay: Antibacterial activity against Streptococcus mutans ATCC 25175 assessed as effect on planktonic growth at 87.5 ug/ml after 20 hrs relative to control; type: functional
Staphylococcus aureus [4] = assay: Antibacterial activity against Staphylococcus aureus ATCC 25923 assessed as effect on planktonic growth at 0.17 ug/ml after 20 hrs relative to control; type: functional
Staphylococcus aureus [5] = assay: Antibacterial activity against Staphylococcus aureus ATCC 25923 assessed as effect on planktonic growth at 0.34 ug/ml after 20 hrs relative to control; type: functional
Staphylococcus aureus [6] = assay: Antibacterial activity against Staphylococcus aureus ATCC 25923 assessed as effect on planktonic growth at 0.68 ug/ml after 20 hrs relative to control; type: functional
Staphylococcus aureus [7] = assay: Antibacterial activity against Staphylococcus aureus ATCC 25923 assessed as effect on planktonic growth at 1.37 ug/ml after 20 hrs relative to control; type: functional
Staphylococcus aureus [8] = assay: Antibacterial activity against Staphylococcus aureus ATCC 25923 assessed as effect on planktonic growth at 5.5 ug/ml after 20 hrs relative to control; type: functional
Staphylococcus aureus [9] = assay: Antibacterial activity against Staphylococcus aureus ATCC 25923 assessed as effect on planktonic growth at 2.73 ug/ml after 20 hrs relative to control; type: functional
Staphylococcus aureus [10] = assay: Antibacterial activity against Staphylococcus aureus ATCC 25923 assessed as effect on planktonic growth at 10.9 ug/ml after 20 hrs relative to control; type: functional
Staphylococcus aureus [11] = assay: Antibacterial activity against Staphylococcus aureus ATCC 25923 assessed as effect on planktonic growth at 21.9 ug/ml after 20 hrs relative to control; type: functional
Staphylococcus aureus [12] = assay: Antibacterial activity against Staphylococcus aureus ATCC 25923 assessed as effect on planktonic growth at 43.8 ug/ml after 20 hrs relative to control; type: functional
Staphylococcus aureus [13] = assay: Antibacterial activity against Staphylococcus aureus ATCC 25923 assessed as effect on planktonic growth at 87.5 ug/ml after 20 hrs relative to control; type: functional
Pseudomonas aeruginosa [14] = assay: Antibacterial activity against Pseudomonas aeruginosa ATCC 27853 assessed as effect on planktonic growth at 0.17 ug/ml after 20 hrs relative to control; type: functional
Pseudomonas aeruginosa [15] = assay: Antibacterial activity against Pseudomonas aeruginosa ATCC 27853 assessed as effect on planktonic growth at 0.34 ug/ml after 20 hrs relative to control; type: functional
Pseudomonas aeruginosa [16] = assay: Antibacterial activity against Pseudomonas aeruginosa ATCC 27853 assessed as effect on planktonic growth at 0.68 ug/ml after 20 hrs relative to control; type: functional
Pseudomonas aeruginosa [17] = assay: Antibacterial activity against Pseudomonas aeruginosa ATCC 27853 assessed as effect on planktonic growth at 1.37 ug/ml after 20 hrs relative to control; type: functional
Pseudomonas aeruginosa [18] = assay: Antibacterial activity against Pseudomonas aeruginosa ATCC 27853 assessed as effect on planktonic growth at 2.73 ug/ml after 20 hrs relative to control; type: functional
Pseudomonas aeruginosa [19] = assay: Antibacterial activity against Pseudomonas aeruginosa ATCC 27853 assessed as effect on planktonic growth at 5.5 ug/ml after 20 hrs relative to control; type: functional
Pseudomonas aeruginosa [20] = assay: Antibacterial activity against Pseudomonas aeruginosa ATCC 27853 assessed as effect on planktonic growth at 10.9 ug/ml after 20 hrs relative to control; type: functional
Pseudomonas aeruginosa [21] = assay: Antibacterial activity against Pseudomonas aeruginosa ATCC 27853 assessed as effect on planktonic growth at 21.9 ug/ml after 20 hrs relative to control; type: functional
Pseudomonas aeruginosa [22] = assay: Antibacterial activity against Pseudomonas aeruginosa ATCC 27853 assessed as effect on planktonic growth at 43.8 ug/ml after 20 hrs relative to control; type: functional
Pseudomonas aeruginosa [23] = assay: Antibacterial activity against Pseudomonas aeruginosa ATCC 27853 assessed as effect on planktonic growth at 87.5 ug/ml after 20 hrs relative to control; type: functional
[24] = tested on: Staphylococcus epidermidis; assay: Antibacterial activity against Staphylococcus epidermidis ATCC 35547 assessed as effect on planktonic growth at 0.17 ug/ml after 20 hrs relative to control; type: functional
[25] = tested on: Staphylococcus epidermidis; assay: Antibacterial activity against Staphylococcus epidermidis ATCC 35547 assessed as effect on planktonic growth at 0.34 ug/ml after 20 hrs relative to control; type: functional
[26] = tested on: Staphylococcus epidermidis; assay: Antibacterial activity against Staphylococcus epidermidis ATCC 35547 assessed as effect on planktonic growth at 0.68 ug/ml after 20 hrs relative to control; type: functional
[27] = tested on: Staphylococcus epidermidis; assay: Antibacterial activity against Staphylococcus epidermidis ATCC 35547 assessed as effect on planktonic growth at 1.37 ug/ml after 20 hrs relative to control; type: functional
[28] = tested on: Staphylococcus epidermidis; assay: Antibacterial activity against Staphylococcus epidermidis ATCC 35547 assessed as effect on planktonic growth at 2.73 ug/ml after 20 hrs relative to control; type: functional
[29] = tested on: Staphylococcus epidermidis; assay: Antibacterial activity against Staphylococcus epidermidis ATCC 35547 assessed as effect on planktonic growth at 5.5 ug/ml after 20 hrs relative to control; type: functional
[30] = tested on: Staphylococcus epidermidis; assay: Antibacterial activity against Staphylococcus epidermidis ATCC 35547 assessed as effect on planktonic growth at 10.9 ug/ml after 20 hrs relative to control; type: functional
[31] = tested on: Staphylococcus epidermidis; assay: Antibacterial activity against Staphylococcus epidermidis ATCC 35547 assessed as effect on planktonic growth at 21.9 ug/ml after 20 hrs relative to control; type: functional
[32] = tested on: Staphylococcus epidermidis; assay: Antibacterial activity against Staphylococcus epidermidis ATCC 35547 assessed as effect on planktonic growth at 43.8 ug/ml after 20 hrs relative to control; type: functional
[33] = tested on: Staphylococcus epidermidis; assay: Antibacterial activity against Staphylococcus epidermidis ATCC 35547 assessed as effect on planktonic growth at 87.5 ug/ml after 20 hrs relative to control; type: functional
Pseudomonas aeruginosa [34] = assay: Antibacterial activity against Pseudomonas aeruginosa ATCC 27853 assessed as inhibition of biofilm formation after 20 hrs by crystal-violet staining method; type: functional, organism-based; conditions: for IC50: ATCC 27853, 20 h
[35] = tested on: Staphylococcus epidermidis; assay: Antibacterial activity against Staphylococcus epidermidis ATCC 35547 assessed as inhibition of biofilm formation after 20 hrs by crystal-violet staining method; type: functional, organism-based; conditions: for IC50: ATCC 35547, 20 h
Streptococcus mutans [36] = assay: Antibacterial activity against Streptococcus mutans ATCC 25175 assessed as effect on planktonic growth at 0.17 ug/ml after 20 hrs relative to control; type: functional
Streptococcus mutans [37] = assay: Antibacterial activity against Streptococcus mutans ATCC 25175 assessed as effect on planktonic growth at 0.34 ug/ml after 20 hrs relative to control; type: functional
Streptococcus mutans [38] = assay: Antibacterial activity against Streptococcus mutans ATCC 25175 assessed as effect on planktonic growth at 0.68 ug/ml after 20 hrs relative to control; type: functional
Streptococcus mutans [39] = assay: Antibacterial activity against Streptococcus mutans ATCC 25175 assessed as effect on planktonic growth at 1.37 ug/ml after 20 hrs relative to control; type: functional
Streptococcus mutans [40] = assay: Antibacterial activity against Streptococcus mutans ATCC 25175 assessed as effect on planktonic growth at 2.73 ug/ml after 20 hrs relative to control; type: functional
Streptococcus mutans [41] = assay: Antibacterial activity against Streptococcus mutans ATCC 25175 assessed as effect on planktonic growth at 5.5 ug/ml after 20 hrs relative to control; type: functional
Streptococcus mutans [42] = assay: Antibacterial activity against Streptococcus mutans ATCC 25175 assessed as effect on planktonic growth at 10.9 ug/ml after 20 hrs relative to control; type: functional

## COc1ccc(Br)cc1C1=C(Br)C(=O)N(CC(C)C)/C1=C\c1cccc(Cl)c1
Streptococcus mutans [1]
  Activity: -10.1%
Streptococcus mutans [2]
  Activity: -15.3%
Streptococcus mutans [3]
  Activity: -4%
Staphylococcus aureus [4]
  Activity: -3.5%
Staphylococcus aureus [5]
  Activity: -1.1%
Staphylococcus aureus [6]
  Activity: 1.1%
Staphylococcus aureus [7]
  Activity: -7.2%
Staphylococcus aureus [8]
  Activity: 0.5%
Staphylococcus aureus [9]
  Activity: -2.7%
Staphylococcus aureus [10]
  Activity: 2.4%
Staphylococcus aureus [11]
  Activity: 5.1%
Staphylococcus aureus [12]
  Activity: 16.3%
Staphylococcus aureus [13]
  Activity: 18.4%
Pseudomonas aeruginosa [14]
  Activity: 0.6%
Pseudomonas aeruginosa [15]
  Activity: -4.4%
Pseudomonas aeruginosa [16]
  Activity: -0.3%
Pseudomonas aeruginosa [17]
  Activity: 3%
Pseudomonas aeruginosa [18]
  Activity: 0.1%
Pseudomonas aeruginosa [19]
  Activity: -3.1%
Pseudomonas aeruginosa [20]
  Activity: -9%
Pseudomonas aeruginosa [21]
  Activity: -4.8%
Pseudomonas aeruginosa [22]
  Activity: -5.6%
Pseudomonas aeruginosa [23]
  Activity: 14.6%
[24]
  Activity: 2.2%
[25]
  Activity: 6.4%
[26]
  Activity: 5.6%
[27]
  Activity: 9.8%
[28]
  Activity: 6.8%
[29]
  Activity: 2.1%
[30]
  Activity: 23.2%
[31]
  Activity: 57.9%
[32]
  Activity: 84.7%
[33]
  Activity: 72.2%
Pseudomonas aeruginosa [34]
  inhibition: Dose-dependent effect
  IC50: > 87.5 µg/mL
[35]
  inhibition: Dose-dependent effect
  IC50: 31.1 µg/mL (≈ 59.2 µM)
Streptococcus mutans [36]
  Activity: -1.2%
Streptococcus mutans [37]
  Activity: 6.7%
Streptococcus mutans [38]
  Activity: 11.4%
Streptococcus mutans [39]
  Activity: 2.7%
Streptococcus mutans [40]
  Activity: -6.2%
Streptococcus mutans [41]
  Activity: 1.5%
Streptococcus mutans [42]
  Activity: -19.1%

## COc1ccc(Br)cc1C1=C(Br)C(=O)N(CC(C)C)C1(O)Cc1cccc(Cl)c1 (stereo unspecified)
Streptococcus mutans [1]
  Activity: 15.4%
Streptococcus mutans [2]
  Activity: 16.9%
Streptococcus mutans [3]
  Activity: 26.1%
Staphylococcus aureus [4]
  Activity: -4.6%
Staphylococcus aureus [5]
  Activity: 6.1%
Staphylococcus aureus [6]
  Activity: 3.1%
Staphylococcus aureus [7]
  Activity: -2%
Staphylococcus aureus [8]
  Activity: 16.6%
Staphylococcus aureus [9]
  Activity: 0.6%
Staphylococcus aureus [10]
  Activity: 4.2%
Staphylococcus aureus [11]
  Activity: 23.8%
Staphylococcus aureus [12]
  Activity: 30.3%
Staphylococcus aureus [13]
  Activity: 35.1%
Pseudomonas aeruginosa [14]
  Activity: -7.3%
Pseudomonas aeruginosa [15]
  Activity: -5.4%
Pseudomonas aeruginosa [16]
  Activity: -9%
Pseudomonas aeruginosa [17]
  Activity: -6.6%
Pseudomonas aeruginosa [18]
  Activity: 0.1%
Pseudomonas aeruginosa [19]
  Activity: -3.1%
Pseudomonas aeruginosa [20]
  Activity: 3.2%
Pseudomonas aeruginosa [21]
  Activity: 1.4%
Pseudomonas aeruginosa [22]
  Activity: 4.3%
Pseudomonas aeruginosa [23]
  Activity: 3.3%
[24]
  Activity: 17.5%
[25]
  Activity: 34.1%
[26]
  Activity: 23.2%
[27]
  Activity: 22.8%
[28]
  Activity: 20.9%
[29]
  Activity: 24.3%
[30]
  Activity: 25.8%
[31]
  Activity: 30.2%
[32]
  Activity: 35.9%
[33]
  Activity: 38.2%
Pseudomonas aeruginosa [34]
  inhibition: Dose-dependent effect
[35]
  inhibition: Dose-dependent effect
  IC50: > 87.5 µg/mL
Streptococcus mutans [36]
  Activity: 1.1%
Streptococcus mutans [37]
  Activity: 5.5%
Streptococcus mutans [38]
  Activity: 10.3%
Streptococcus mutans [39]
  Activity: 12.1%
Streptococcus mutans [40]
  Activity: 7%
Streptococcus mutans [41]
  Activity: 9.6%
Streptococcus mutans [42]
  Activity: 6.6%

## COc1cccc(/C=C2/C(c3cc(Cl)ccc3OC)=C(Br)C(=O)N2CC(C)C)c1
Streptococcus mutans [1]
  Activity: 6.2%
Streptococcus mutans [2]
  Activity: 12.3%
Streptococcus mutans [3]
  Activity: 30.8%
Staphylococcus aureus [4]
  Activity: -2.6%
Staphylococcus aureus [5]
  Activity: -3%
Staphylococcus aureus [6]
  Activity: -9.6%
Staphylococcus aureus [7]
  Activity: -5.7%
Staphylococcus aureus [8]
  Activity: -3.5%
Staphylococcus aureus [9]
  Activity: -13.7%
Staphylococcus aureus [10]
  Activity: -7.2%
Staphylococcus aureus [11]
  Activity: 7.2%
Staphylococcus aureus [12]
  Activity: -11.3%
Staphylococcus aureus [13]
  Activity: 13%
Pseudomonas aeruginosa [14]
  Activity: 3.2%
Pseudomonas aeruginosa [15]
  Activity: 2.8%
Pseudomonas aeruginosa [16]
  Activity: 1%
Pseudomonas aeruginosa [17]
  Activity: 0.8%
Pseudomonas aeruginosa [18]
  Activity: 0.2%
Pseudomonas aeruginosa [19]
  Activity: -9.1%
Pseudomonas aeruginosa [20]
  Activity: -15.5%
Pseudomonas aeruginosa [21]
  Activity: -10%
Pseudomonas aeruginosa [22]
  Activity: -8.9%
Pseudomonas aeruginosa [23]
  Activity: -2.1%
[24]
  Activity: 5.8%
[25]
  Activity: -0.7%
[26]
  Activity: 5.5%
[27]
  Activity: -2.6%
[28]
  Activity: -3.8%
[29]
  Activity: -2.3%
[30]
  Activity: 0.9%
[31]
  Activity: 11.3%
[32]
  Activity: 24.6%
[33]
  Activity: 35.5%
Pseudomonas aeruginosa [34]
  inhibition: Dose-dependent effect
  IC50: > 87.5 µg/mL
[35]
  inhibition: Dose-dependent effect
  IC50: 41 µg/mL (≈ 86 µM)
Streptococcus mutans [36]
  Activity: -19.6%
Streptococcus mutans [37]
  Activity: -18.2%
Streptococcus mutans [38]
  Activity: -17.3%
Streptococcus mutans [39]
  Activity: -4.4%
Streptococcus mutans [40]
  Activity: -6.5%
Streptococcus mutans [41]
  Activity: 2.6%
Streptococcus mutans [42]
  Activity: 1.2%
